Measurements: patent US11179384B2, “Treatment of nonalcoholic fatty liver disease” (TAKEDA GMBH, priority 2016, dated 2021)

Key:
[1] = tested on: male C57BL/6J mice (high caloric diet); assay: Liver lipidosis / liver weight, 8 weeks treatment in diet induced obese (DIO) mice; type: in vivo; conditions: for Liver weight (Day 56) / Grade Liver Lipidosis (mean): high caloric diet; for Liver weight (Day 56): vehicle HD 1.04, SD 0.96; for Grade Liver Lipidosis (mean): day 56, grades 1 minimal to 4 marked, vehicle HD 1.5
From the text: Obesity was induced in male C57BL/6J mice (Charles River, Germany; 6 weeks of age weighing 19-20 g at start of study) by feeding a high caloric diet (60% kcal % fat; No. 2127; Provimi-Kliba, Switzerland)) for 7 weeks. Animals were single housed in Makrolon cages type II-Long with free access to food and tap water. When body weight gain exceeded 50% compared to body weight at onset of diet, the animals were randomized according to body weight (day −4) followed by treatment for 8 weeks with daily doses of Compound A (0.3, 1, 3 and 10 mg/kg/day, p.o; dissolved in 4% (w/v) aqueous methocel solution to give the required dose in a volume of 10 mL/kg body weight; n=10 in each group). After 8 weeks of treatment, animals were sacrificed. Liver was removed, weighed and fixed in 4% neutral buffered formalin for 2 days, embedded in paraffine and stained with Hematoxylin-Eosin for histological evaluation. The slides were blinded for histological reading and liver lipidosis was evaluated by light microscopy.
The degree of liver lipidosis was assessed semi-quantitatively by the following grading criteria:
Grade 1 (minimal): small round cytoplasmic vacuoles within hepatocytes
Grade 2 (mild): small to medium sized round cytoplasmic vacuoles within hepatocytes
Grade 3 (moderate): in addition: round cytoplasmic vacuoles, partly forcing the nucleus to the periphery of the cell
Grade 4 (marked): in addition: whole lobe affected
For focal changes or multifocal changes 0.5 or 0.25 were subtracted respectively. The mean severity index was calculated by dividing the sum of all gradings/group by the number of animals/group.

TNFα gene expression = assay: Hepatic gene expression in prophylactic NASH mouse model, TNFα (Taqman PCR); type: in vivo; conditions: LDLR-KO mice on mCDAA diet; 1, 3 and 10 mg/kg p.o. QD for 7 weeks; liver mRNA
Method: Homozygous low-density lipoprotein receptor knockout (LDLR-KO) mice were fed with chow or modified choline deficient, L-amino acid-defined (mCDAA) diet (A08111307, Research Diets, USA). After 1 week under chow or mCDAA diet, the mice were orally dosed with Compound A (1, 3 and 10 mg/5 ml/kg, QD, n=10; suspension in 0.5 w/v % methylcellulose suspension) for 7 weeks.
In addition prophylactic effects of Compound A on hepatic gene expression were evaluated. After total RNA was extracted from liver, cDNA was amplified using High-Capacity cDNA Reverse Transcription Kit (ABI 4368813), and target gene mRNA was measured using Taqman PCR. The target gene expression level was normalized by GAPDH.

[2] = tested on: Tumor Necrosis Factor Alpha (TNFα); assay: Systemic TNFα release in LPS-challenged Sprague Dawley rats; type: in vivo; conditions: SD rats; 0.1, 0.3, 1, 3 and 10 mg/kg p.o. 1 h before LPS 20 μg/kg i.v.; plasma 1 h after LPS; significant at all doses
Method: Compound A was administered 1 h before LPS challenge at doses of 0.1, 0.3, 1, 3 and 10 mg/kg (n=8 animals per dose group). An LPS and vehicle treated control group of n=8 animals was enclosed. Compound A or vehicle was given per os (p.o.) by gavage (administration volume: 10 mL/kg b.w.). LPS was injected intravenously (i.v.) at a dose of 20 μg/kg (administration volume: 1 mL/kg b.w.) 1 h after compound or vehicle administration.
One hour after LPS-challenge, the animals were sacrificed by inhalative isoflurane anaesthesia (5%; flow rate: 2-3 L/min) and subsequent cervical dislocation. Heparinized blood was obtained by heart puncture. Blood was centrifuged (21,000×g, 4° C., 10 min), and plasma samples were kept frozen at −20° C. until determination of TNFα levels by ELISA.

[3] = tested on: alfa smooth muscle actin (αSMA) gene expression in human stellate cells (HSCs); assay: Anti-fibrotic activity in human hepatic stellate cells (TGF-β-induced αSMA gene expression); type: cell-based; conditions: primary human HSCs; 0.0001-1 μM, TGF-β 0.2 ng/mL, forskolin 1 μM, 24 hours
Method: The effect on human stellate cells (HSCs) activation was evaluated by gene expression of alfa smooth muscle actin (αSMA) induced by TGF-β.
Primary HSCs (ScienCell) were suspended in serum-free SteCM medium (ScienCell) and seeded on Poly-D-Lysine-coated 96 well plates as 2.5×10^3 cells/100 uL/well. Six hours after the seeding, HSCs were treated with Compound A (0, 0.0001, 0.001, 0.01, 0.1, and 1 μM), TGF-β (0.2 ng/mL) and forskolin (1 μM) for 24 hours. After the 24-hours incubation, total RNA was extracted from cell lysate using RNeasy 96 Kit (QIAGEN 74182). cDNA was amplified using High-Capacity cDNA Reverse Transcription Kit (ABI 4368813), and target gene mRNA was measured using Taqman PCR. The target gene expression level was normalized by GAPDH. The experiment was repeated 5 times.

Male C57BL/6J mice (DIO) = assay: Body weight, fat and lean mass, 4 weeks treatment in diet-induced obese (DIO) mice; type: in vivo; conditions: for Body weight change from pretreatment (Day 0): mean±S.D., vehicle +3.8%
Method: Male C57BL/6J mice were obtained from CLEA Japan, Inc. The mice were fed High fat diet D12451 (Research diets, Inc) from 5 week to 54-week old and water ad libitum.
All mice were housed individually in animal cages and used for the study after 2 weeks of acclimation period. Animal groups (n=7) were treated with either vehicle (0.5 w/v % methylcellulose, p.o.) or Compound A (1 mg/kg or 3 mg/kg, p.o. suspension in 0.5 w/v % methylcellulose solution) in the evening once a day for 4 weeks from 50 weeks of age. Body weight was measured 2 or 3 times per week. Regarding body composition fast mass and lean mass were measured.
Body composition (fat mass and lean mass) was measured by Echo-MRI-900 (ALOKA Japan).
All data are presented as mean±S.D. For evaluation of the effects of Compound A, statistical significances between vehicle (p.o.) and Compound A treated groups were analyzed with one-tailed Williams' test or Shirley-Williams test when the variances among the groups were homogeneous or heterogeneous, respectively. The p-values less than 0.025 were considered statistically significant in one-tailed Williams' test or Shirley-Williams test. Body weight change from pretreatment (Day 0) was calculated using the following formula: [(BW-BW at Day 0)/BW at Day 0]×100.

[4] = 3 and 10 mg/kg p.o. daily, 8 weeks
[5] = 1 mg/kg p.o. once a day for 4 weeks
[6] = 1 and 3 mg/kg p.o. once a day for 4 weeks

In the case of CCOc1cc2c(cc1OC)C(c1ccc(=O)n(C)c1)=N[C@@H]1CC[C@@H](O)C[C@H]21 [Compound A, 5-((2R,4aR,10bR)-9-Ethoxy-2-hydroxy-8-methoxy-1,2,3,4,4a,10b-hexahydro-phenanthridin-6-yl)-1-methyl-1H-pyridin-2-one], the “increase in liver weight caused by high caloric diet” value [1, 4] is reported as “completely abolished”, the liver lipidosis [1, 4] is reported as “almost abolished” and the “Liver weight (Day 56)” value ([1]; 0.3 mg/kg p.o. daily, 8 weeks) is reported as 1.08 g. The “Grade Liver Lipidosis (mean)” value ([1]; 0.3 mg/kg p.o.) was 1.4, the “Liver weight (Day 56)” value ([1]; 1.0 mg/kg p.o. daily, 8 weeks) was 1.01 g and the “Grade Liver Lipidosis (mean)” value ([1]; 1.0 mg/kg p.o.) was 0.6. For the same molecule, the “Liver weight (Day 56)” value ([1]; 3.0 mg/kg p.o. daily, 8 weeks) was 0.96 g, the “Grade Liver Lipidosis (mean)” value ([1]; 3.0 mg/kg p.o.) was 0.3 and the “Liver weight (Day 56)” value ([1]; 10 mg/kg p.o. daily, 8 weeks) was 0.95 g. The “Grade Liver Lipidosis (mean)” value ([1]; 10.0 mg/kg p.o.) was 0.2, the “hepatic inflammatory TNFα gene expression (normalized by GAPDH)” value (TNFα gene expression) was “dose-dependent reduction” and the “mean TNFα in blood plasma” value [2] was “dose-dependently reduced”. The “TGF-β-induced αSMA gene expression in HSCs” value [3] was “dose-dependently suppressed”, the “body weight reduction corrected with vehicle-treated body weight change” value (Male C57BL/6J mice (DIO); [5]) was −8.7±3.5% and the “Body weight change from pretreatment (Day 0)” value (Male C57BL/6J mice (DIO); [5]) was −4.9±3.5%. For the same molecule, the “Body weight change from pretreatment (Day 0)” value (Male C57BL/6J mice (DIO); 3 mg/kg p.o. once a day for 4 weeks) was −17.2±4.0%, the “body weight during the 4-week study period” value (Male C57BL/6J mice (DIO); 1 and 3 mg/kg p.o. once a day) was “durable body weight lowering effect” and the “fat mass (Echo-MRI)” value (Male C57BL/6J mice (DIO); [6]) was “dose dependently and significantly decreased”. The “lean mass (Echo-MRI)” value (Male C57BL/6J mice (DIO); [6]) was “without affecting”.
